{"source": "patent US12428389B2", "about": "“Diarylamide compound and application thereof” (Sunshine Lake Pharma Co., Ltd., priority 2019, dated 2025)", "key": {"SD rats [1]": {"tested_on": "SD rats", "experiment": "single subcutaneous injection, diuretic effect in rats (metabolic cage)", "format": "in vivo", "conditions": "100 mg/kg subcutaneous", "description": "The urine collection system was siliconized in advance to prevent urine loss. […] Solvent control: corn oil. The weight of urine was measured by the weight loss method and converted to volume (1 g≈1 mL). […] The peak of the diuretic effect was at 4 h after administration, and the duration of the diuretic effect was about 6-8 h. The results were shown as means±SEM, n=6. The urine osmotic pressure of the collected urine was measured by using a freezing point osmometer. […] The peak of action was at 4 h after administration, and returned to the level before administration at 6-8 h after administration. The results were shown as means±SEM, n=6. The urine samples were detected by using a urea kit for the level of urea in the urine. According to the previously measured urine volume, urine osmotic pressure and urea excretion per 2 h, the excretion of non-urea solutes per 2 h was calculated. […] The results were shown as means±SEM, n=6."}, "SD rats [2]": {"tested_on": "SD rats", "experiment": "single intragastric administration, diuretic effect in rats (metabolic cage)", "format": "in vivo", "conditions": "100 mg/kg, single (FIG. 5: intragastric)", "description": "The urine collection system was siliconized in advance to prevent urine loss. […] The weight of urine was measured by the weight loss method and converted to volume (1 g≈1 mL). […] Urine volume began to rise at 2 h after administration, the peak of diuretic effect was at 4 h after administration, and the duration of diuretic effect was about 6-8 h. The results were shown as means±SEM, n=6. The urine osmotic pressure of the collected urine was measured by using a freezing point osmometer. […] The peak of action was at 4 h after administration, and recovered to the level before administration at 6-8 h after administration. The results were shown as means±SEM, n=6. Urine samples were detected by using a urea kit for the level of urea in the urine. According to the previously measured urine volume, urine osmotic pressure and urea excretion per 2 h, the excretion of non-urea solutes per 2 h was calculated. […] C57BL/6J mice, male, 6 in each group, weighing 20˜22 g, were taken. […] The urine collection system was siliconized in advance to prevent urine loss. […] Solvent control: CMC-Na. The weight of urine was measured by the weight loss method and converted to volume (1 g≈1 mL). […] The results were shown as means±SEM, n=6. The urine osmotic pressure of the collected urine was measured by using a freezing point osmometer. […] The results were shown as means±SEM, n=6. The urine samples were detected by using a urea kit for the level of urea in the urine. According to the previously measured urine volume, urine osmotic pressure and urea excretion per 2 h, the excretion of non-urea solutes per 2 h was calculated. […] The results were shown as means ±SEM, n=6."}, "MDCK cells": {"tested_on": "MDCK cells", "experiment": "MDCK cytotoxicity test, CCK-8 kit", "format": "cell-based", "conditions": "7.8-125 μM, cultured for 12 h", "description": "In order to study the cytotoxicity of the compound of the present invention, an MDCK cytotoxicity test was completed by using a CCK-8 kit. […]. In this study, a CCK-8 kit was used to detect the cytotoxicity of compounds: MDCK cell suspension in logarithmic growth phase was inoculated into a 96-well culture plate (1×10^4 cells/well/100 μL), and 100 μL of DMEM culture solution containing 10% fetal bovine serum, 100 U/mL penicillin and 100 μg/mL streptomycin was administrated to each well, then cultured in a 37° C., 5% CO2 incubator. When the cells were 70%-80% confluent, serum starvation was performed for 12 h for synchronization. […]. At the same time, blank wells (medium, CCK-8) and control wells (cells, dissolving medium of the same concentration compound, medium, CCK-8) were set up, 3 replicate wells per group. Cell survival rate was calculated: cell survival rate (%)=[(ODexperimental well−ODblank well)/(ODcontrol well−ODblank well)]×100%, wherein OD refers to the absorbance value of each well."}, "SD rats [3]": {"tested_on": "SD rats", "experiment": "toxicity after 7 days intragastric administration in rats (organ indexes, serum, kidney histology)", "procedure": "Normal SD rats, 8 weeks old, male, 8 rats in each group were taken. The animals were placed in a metabolic cage and acclimatized for three days prior to the experiment, on a standard diet with free access to water. […] The administration was continued for 7 days. On the 7th day, the rats were anesthetized with sodium pentobarbital, and the liver and kidney were taken, weighed, and the kidney weight index and liver weight index were calculated. […] The kidney tissue was immersed in a fixative solution (4% paraformaldehyde), embedded with a paraffin embedding machine, and then cut into 6 μm thick paraffin sections by a paraffin microtome. […] The sections were observed under an optical microscope. The inner medulla, outer medulla, and cortex of each kidney were selected for comparative observation by an optical microscope. […] Blood was collected by cardiac puncture, then centrifuged to obtain serum, which was used to measure serum indexes by instruments."}}}
{"compound": "CC(=O)Nc1ccc(NC(=O)c2ccc([N+](=O)[O-])o2)cc1", "note": "[Example 3, N-(4-acetamidophenyl)-5-nitrofuran-2-carboxamide]", "values": [{"measurement": "duration of the diuretic effect", "setting": "SD rats [1]", "value": "6 to 8", "unit": "h"}, {"measurement": "peak of action on urine osmotic pressure, time after administration", "setting": "SD rats [1]", "value": 4, "unit": "h"}, {"measurement": "peak of the diuretic effect, time after administration", "setting": "SD rats [1]", "value": 4, "unit": "h"}, {"measurement": "urine osmotic pressure returned to the level before administration, time after administration", "setting": "SD rats [1]", "value": "6 to 8", "unit": "h"}, {"measurement": "duration of diuretic effect", "setting": "SD rats [2]", "value": "6 to 8", "unit": "h"}, {"measurement": "peak of action on urine osmotic pressure, time after administration", "setting": "SD rats [2]", "value": 4, "unit": "h"}, {"measurement": "peak of diuretic effect, time after administration", "setting": "SD rats [2]", "value": 4, "unit": "h"}, {"measurement": "urine osmotic pressure recovered to the level before administration, time after administration", "setting": "SD rats [2]", "value": "6 to 8", "unit": "h"}, {"measurement": "urine volume began to rise, time after administration", "setting": "SD rats [2]", "value": 2, "unit": "h"}, {"measurement": "cytotoxic effect (cell survival rate)", "setting": "MDCK cells", "value": "no significant cytotoxic effect"}, {"measurement": "serum urea level", "setting": "SD rats [3]; 100 mg/kg intragastric every 8 h, vs control", "value": "no significant statistical difference"}, {"measurement": "inner medullary tubules, histology", "setting": "SD rats [3]; HE sections", "value": "tubule swelling appeared in the inner medullary"}, {"measurement": "histological morphology of the kidney", "setting": "SD rats [3]; HE sections, inner medulla, outer medulla, cortex", "value": "did not significantly affect"}, {"measurement": "Serum chlorine", "setting": "SD rats [3]; n = 8", "value": "101.7 ± 1.3", "unit": "mM"}, {"measurement": "Serum cholesterol", "setting": "SD rats [3]; n = 8", "value": "1.59 ± 0.06", "unit": "mM"}, {"measurement": "Serum glucose", "setting": "SD rats [3]; n = 8", "value": "9.4 ± 0.3", "unit": "mM"}, {"measurement": "Serum high-density lipoprotein", "setting": "SD rats [3]; n = 8", "value": "0.71 ± 0.03", "unit": "mM"}, {"measurement": "Serum low-density lipoprotein", "setting": "SD rats [3]; n = 8", "value": "0.34 ± 0.03", "unit": "mM"}, {"measurement": "Serum potassium", "setting": "SD rats [3]; n = 8", "value": "4.8 ± 0.2", "unit": "mM"}, {"measurement": "Serum sodium", "setting": "SD rats [3]; n = 8", "value": "147.3 ± 2.0", "unit": "mM"}, {"measurement": "Serum triglyceride", "setting": "SD rats [3]; n = 8", "value": "0.68 ± 0.07", "unit": "mM"}]}
